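Assay format: 96-well plates, 48-hour exposure. The concentration for full growth arrest is given as TGI.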
How the values were obtained:
Test in all cases: NCI tumour cell line growth inhibition, 48 h
SF-539 CNS = test system: SF-539 CNS
HOP-62 NSCLC = test system: HOP-62 NSCLC
HCT-116 colon = test system: HCT-116 colon
OVCAR-4 ovarian = test system: OVCAR-4 ovarian
OVCAR-8 ovarian = test system: OVCAR-8 ovarian
SF-295 CNS = test system: SF-295 CNS
SK-MEL-5 melanoma = test system: SK-MEL-5 melanoma
NCI-H23 lung = test system: NCI-H23 lung
MDA-MB-231 breast = test system: MDA-MB-231 breast
OVCAR-5 ovarian = test system: OVCAR-5 ovarian

Structure (SMILES) | TGI (SF-539 CNS) | TGI (HOP-62 NSCLC) | TGI (HCT-116 colon) | TGI (OVCAR-4 ovarian) | TGI (OVCAR-8 ovarian) | TGI (SF-295 CNS) | TGI (SK-MEL-5 melanoma) | TGI (NCI-H23 lung) | TGI (MDA-MB-231 breast) | TGI (OVCAR-5 ovarian)
Cc1c2c(c(O)c3c(O)cccc13)C(=O)C1(O)C(O)=C(C(=O)NCNc3ccc(C(N)=O)cn3)C(=O)C(N(C)C)C1C2 (stereo not drawn) | 7.42 µM | > 100 µM | > 100 µM | 5.85 µM | 35.5 µM | 17.9 µM | 11.2 µM | 39.3 µM | > 100 µM | 34.2 µM
CCOC(=O)C1=NN(c2ccc([N+](=O)[O-])cc2)[C@@]2(C)C[C@]3(c4ccccc4)N(c4ccc([N+](=O)[O-])cc4)N=C(C(=O)OCC)N3c3ccccc3N12 | > 100 µM | > 100 µM | > 100 µM | > 100 µM | > 100 µM | > 100 µM | > 100 µM | > 100 µM | 84.4 µM | > 100 µM
CC(=O)NC1(c2cc3ccccc3s2)CCCCCC1 | > 100 µM | > 100 µM | > 100 µM | > 100 µM | > 100 µM | > 100 µM | 66.7 µM | > 100 µM | > 100 µM | > 100 µM
Cc1cccc2c1c(=O)c1c(O)c3c(cc1n2C)OC(C)(C)C=C3 | > 10 µM | > 10 µM | > 10 µM | > 10 µM | > 10 µM | > 10 µM | > 10 µM | > 10 µM | > 10 µM | > 10 µM
O=C1CSC(c2ccccc2[N+](=O)[O-])N1c1ccc(-c2ccc(-n3c(-c4ccccc4)nc4ccccc4c3=O)cc2)cc1 (stereo not drawn) | > 100 µM | > 100 µM | > 100 µM | > 100 µM | > 100 µM | > 100 µM | > 100 µM | – | > 100 µM | > 100 µM
COc1cc(NCCC2CCCCN2)c2ncccc2c1 (stereo not drawn) | > 100 µM | > 100 µM | > 67.6 µM | > 100 µM | > 100 µM | > 100 µM | > 55.4 µM | > 100 µM | > 92.1 µM | > 100 µM
COC1CN(C)C(=Nc2cccc3ccccc23)S1 (stereo not drawn) | > 10 µM | > 10 µM | > 10 µM | > 10 µM | > 10 µM | > 10 µM | > 10 µM | > 10 µM | > 10 µM | > 10 µM
COc1ccc(C2SCC(=O)N2NC(=O)c2ccc(NC(C)=O)cc2)c(OC)c1 (stereo not drawn) | > 100 µM | > 100 µM | > 100 µM | > 100 µM | > 100 µM | > 100 µM | > 100 µM | > 100 µM | > 100 µM | > 100 µM
N#Cc1c(-c2ccc(Cl)cc2)[nH]c(=O)n(C2OC(CO)C(O)C(O)C2O)c1=O (stereo not drawn) | > 100 µM | > 100 µM | > 100 µM | > 100 µM | > 100 µM | > 100 µM | > 100 µM | > 100 µM | > 100 µM | > 100 µM
N#CC(=N)c1ncn(-c2ccc(N)cc2)c1N | > 100 µM | > 100 µM | > 100 µM | > 100 µM | > 100 µM | > 100 µM | > 100 µM | > 100 µM | > 100 µM | > 100 µM
CC(=O)OCC1OC(n2c(-c3ccccc3)c(C(C)=O)c(-c3cccc4ccccc34)c(C#N)c2=S)C(OC(C)=O)C(OC(C)=O)C1OC(C)=O (stereo not drawn) | > 100 µM | > 100 µM | > 100 µM | > 100 µM | > 100 µM | > 100 µM | > 100 µM | > 100 µM | > 100 µM | > 100 µM
O=C(O)CCSCc1ccccc1 | > 100 µM | > 100 µM | > 100 µM | > 100 µM | > 100 µM | > 100 µM | > 100 µM | > 100 µM | > 100 µM | > 100 µM
CC(C)=CC(Cc1ccccc1)S(=O)(=O)c1nc2ccccc2s1 (stereo not drawn) | 30.8 µM | 64.3 µM | 28.3 µM | 37.1 µM | 35.1 µM | 66.6 µM | 27.1 µM | 48.8 µM | 52 µM | 36.7 µM
CCOC(=O)C1(C(=O)OCC)OC(C)=NC1(C(=O)OC)C(=O)OC | > 100 µM | > 100 µM | > 100 µM | > 100 µM | > 100 µM | > 100 µM | > 100 µM | > 100 µM | > 100 µM | > 100 µM
OC(c1ccc(C(F)(F)F)cc1)C(F)(F)c1nc2ccccc2o1 (stereo not drawn) | > 100 µM | > 100 µM | > 100 µM | > 100 µM | > 100 µM | > 100 µM | > 100 µM | > 100 µM | > 100 µM | –
COC(=O)c1cc(C(=CCC[C@H]2CC[C@@]3(C)C(CCC4C3CC[C@@]3(C)C4CC[C@@H]3C(C)CCCC(C)C)C2)c2cc(Cl)c(O)c(C(=O)OC)c2)cc(Cl)c1O (stereo partly drawn) | > 10 µM | > 10 µM | > 10 µM | > 10 µM | > 10 µM | > 10 µM | > 10 µM | > 10 µM | > 10 µM | > 10 µM
C/C=C(\C)C(O)C(C)C(O)C/C=C(C)/C=C(\C)C/C(C)=C/C/C=C(\C)C(O)C(C)c1ccc(CCC)c(=O)o1 (stereo not drawn) | 28.2 µM | 30.4 µM | 19.7 µM | 65.4 µM | 48.7 µM | 16.9 µM | 14.3 µM | 26.1 µM | 26.4 µM | 37.9 µM
NC(Cc1ccc(N(CCCl)CCCl)cc1)C(=O)NC(CCC(=O)O)C(=O)O (stereo not drawn) | > 100 µM | > 100 µM | > 100 µM | > 100 µM | > 100 µM | > 100 µM | > 100 µM | > 100 µM | > 100 µM | > 100 µM
CC(C)NC(=O)N(Nc1ccccc1)C(C)(C)C | > 100 µM | > 100 µM | > 100 µM | > 100 µM | > 100 µM | > 100 µM | > 100 µM | > 100 µM | > 100 µM | > 100 µM
O=C1C(=O)N(c2cccc(C(F)(F)F)c2)C(=S)N1c1ccccc1 | 80.6 µM | > 100 µM | > 100 µM | > 100 µM | > 100 µM | > 100 µM | 32 µM | 82.9 µM | 57.2 µM | 80.5 µM

Source: PubChem BioAssay (NCI)
